From patent US9669003B2, “Use of flavone and flavanone derivatives in preparation of sedative and hypnotic drugs” (priority 2012, dated 2017)
Marks after values point to notes of the source that are not given here.

How the values were obtained:
Type in all cases: in vivo
Kunming mice [1] = assay: Influence on hypnosis effect with pentobarbital sodium doses below the threshold (25 mg/kg i.p.); details: pentobarbital sodium 25 mg/kg i.p. 60 min later, sleep observed in 30 min, n = 10
Source text: (§1) 1.1 Animals for experiments: Kunming mice, weighting 18.9˜22.2 g for females, and 20.2˜23.0 g for males, licensed under SCXK-(Ji) 2007-0003, and provided by The experimental animal centre, Jilin University.
(§2) 1.2 Chemicals for experiments: The flavone derivatives provided in Examples 1-41 and the flavanone derivatives provided in Examples 42-71 are all formulated with 0.5% sodium carboxymethyl cellulose as solutions with required concentrations.
(§3) 1.3 Grouping of animals: 6420 animals are employed in the entire experiments and 2140 of the animals are randomly divided into 214 groups by gender, and the […] include: control group, low dosage group for each experimental drugs (25 mg/kg), medium dosage group for each experimental drugs (50 mg/kg), and high dosage group for each experimental drugs (100 mg/kg). Each group has 10 animals and either female or male constitutes half of the group. The groups are used in behavior observation and voluntary action observation. The other 4280 animals are randomly divided into 214 groups by gender respectively (the grouping way is the same with that described above). Each group has 20 animals and either female or male constitutes half of the group. In each group, 10 animals are used in hypnosis experimentations with pentobarbital sodium doses below the threshold, and the other 10 animals are used hypnosis experimentations with pentobarbital sodium doses at the threshold.
1.5.3 Influence on Hypnosis Effect with Mice Pentobarbital Sodium Doses Below the Threshold
The drug is intragastric administered in mice for single time, 2 animals of each group are given drug per round with the dosing interval of 40 min (±5 min). According to the administration round, in 60 min (±5 min) of each round after the drug administration, the animals were intraperitoneally injected 0.3% sodium pentobarbital 25 mg/kg, respectively. Sleep condition of the animals were observed within 30 min (under sleep determination standard of loss of righting reflex more than 1 min). After animals undergo loss of righting reflex, number of the animals is recorded, to calculate sleep percentage.
(§4) Number of autonomic activities is detected by leneve Test for homogeneity of variance. If the homogeneity of variance is good (P>0.05), statistical analysis is performed with ANOVA. If ANOVA have statistical significance (P≦0.05), Dunnett's test for multiple comparisons analysis is performed. Number of animals of sleeping mice is applied of ANOVA. Incidence rate of animal asleep is applied of χ2 test. Sleep latency and sleep duration are recorded in min, averaged by group, represented by standard deviation, and undergo statistical analysis using ANOVA.

Kunming mice [2] = assay: Influence on autonomic activity of normal mice (ZIL-2 mice autonomic activity meter, counts within 10 min); details: intragastric, x ± s, n = 10; for Times of activities in 1 h after drug administration/10 min: 1 h after administration; for Times of activities in 2 h after drug administration/10 min: 2 h after administration; for Times of activities in 24 h after drug administration/10 min: 24 h after administration
Source text: as §1, §2, §3
1.4 Experimental instrument and agents: ZIL-2 mice autonomic activity meter, production of Institute of Materia Medica of Chinese Academy of Medical Sciences; pentobarbital sodium, Lot: 100808, 25 g/bottle, Beijing Chemical Reagent Company equipment imported from Germany.
1.5.2 Influence on Autonomic Activity of Normal Mice
After observing the general behavior, in 1 h, 2 h and 24 h after drug administration, respectively, ZIL-2 mice autonomic activity meter is put respectively. Number of autonomic activities of each group of mice is measured within 10 min. Results among groups are compared.
as §4

Kunming mice [3] = assay: Influence on hypnosis effect with pentobarbital sodium doses at the threshold (50 mg/kg i.p.); details: pentobarbital sodium 50 mg/kg i.p. 60 min later, x ± s, n = 10
Source text: as §1, §2, §3
1.5.4 Influence on Hypnosis Effect with Mice Pentobarbital Sodium Doses at the Threshold
The drug is intragastric administered in mice for single time, 2 animals of each group are given drug per round with the dosing interval of 40 min (±5 min). According to the administration round, in 60 min (±5 min) of each round after the drug administration, the animals were intraperitoneally injected 0.3% sodium pentobarbital 50 mg/kg, respectively. Time to fall asleep (sleep latency) and sleep duration of the animals were recorded within under sleep determination standard of loss of righting reflex more than 1 min.
as §4

[4] = test drug 25 mg/kg intragastric single dose
[5] = test drug 50 mg/kg intragastric single dose
[6] = test drug 100 mg/kg intragastric single dose
[7] = 25 mg/kg intragastric single dose
[8] = 50 mg/kg intragastric single dose
[9] = 100 mg/kg intragastric single dose

Row | Compound | Number of sleeping animals (Kunming mice [1]; [4]) | rate of sleeping (%) (Kunming mice [1]; [4]) | Number of sleeping animals (Kunming mice [1]; [5]) | rate of sleeping (%) (Kunming mice [1]; [5]) | Number of sleeping animals (Kunming mice [1]; [6]) | rate of sleeping (%) (Kunming mice [1]; [6]) | Times of activities in 1 h after drug administration/10 min (Kunming mice [2]; 25 mg/kg) | Times of activities in 2 h after drug administration/10 min (Kunming mice [2]; 25 mg/kg) | Times of activities in 24 h after drug administration/10 min (Kunming mice [2]; 25 mg/kg) | Times of activities in 1 h after drug administration/10 min (Kunming mice [2]; 50 mg/kg) | Times of activities in 2 h after drug administration/10 min (Kunming mice [2]; 50 mg/kg) | Times of activities in 24 h after drug administration/10 min (Kunming mice [2]; 50 mg/kg) | Times of activities in 1 h after drug administration/10 min (Kunming mice [2]; 100 mg/kg) | Times of activities in 2 h after drug administration/10 min (Kunming mice [2]; 100 mg/kg) | Times of activities in 24 h after drug administration/10 min (Kunming mice [2]; 100 mg/kg) | duration of sleep (Kunming mice [3]; [7]) [min] | time to sleep (Kunming mice [3]; [7]) [min] | duration of sleep (Kunming mice [3]; [8]) [min] | time to sleep (Kunming mice [3]; [8]) [min] | duration of sleep (Kunming mice [3]; [9]) [min] | also measured
1 | 6,7,8,4′-tetramethoxyl-flavone [Example 6] | 3 | 30% | 5 | 50** % | 6 | 60** % | 330.1 ± 51.2 /10 min | 314.5 ± 56.7 /10 min | 338.1 ± 96.3 /10 min | 286.7 ± 61.7 /10 min | 279.5 ± 48.2 /10 min | 311.5 ± 91.5 /10 min | 238.3 ± 36.3 /10 min | 249.8 ± 45.8 /10 min | 308.2 ± 82.7 /10 min | 29.81 ± 21.65 | 5.51 ± 1.39 | 47.21 ± 22.93 | 4.20 ± 1.40 | 55.33 ± 19.32 | time to sleep (Kunming mice [3]; [9]): 3.91 ± 2.16 min
2 | COc1cc(OC)c2c(=O)cc(-c3cc(OC)c(OC)c(OC)c3)oc2c1 [Example 1, 5,7,3′,4′,5′-penta methoxyl-flavone] | 5 | 50** % | 7 | 70** % | 10 | 100*** % | 215.3 ± 40.1 /10 min | 211.2 ± 36.3 /10 min | 274.4 ± 81.2 /10 min | 137.1 ± 52.3 /10 min | 168.5 ± 57.9 /10 min | 275.2 ± 79.3 /10 min | 98.2 ± 41.9 /10 min | 96.2 ± 55.7 /10 min | 301.2 ± 80.7 /10 min | 65.42 ± 27.30 | 3.84 ± 1.65 | 78.60 ± 14.67 | 3.54 ± 1.44 | 98.33 ± 21.63 | time to sleep (Kunming mice [3]; [9]): 2.75 ± 1.62 min
3 | COc1ccc(-c2cc(=O)c3c(O)cc(OC)c(OC)c3o2)cc1O [Example 2, 5,3′-dihydroxyl-7,8,4′-trimethoxyl-flavone] | 5 | 50** % | 6 | 60** % | 7 | 70** % | 320.1 ± 54.7 /10 min | 293.5 ± 40.8 /10 min | 302.7 ± 77.5 /10 min | 295.3 ± 41.8 /10 min | 254.2 ± 41.1 /10 min | 306.2 ± 90.6 /10 min | 281.3 ± 47.6 /10 min | 223.5 ± 45.7 /10 min | 311.4 ± 80.3 /10 min | 35.56 ± 15.89 | 6.61 ± 2.22 | 39.23 ± 23.45 | 4.95 ± 2.23 | 53.55 ± 22.04 | time to sleep (Kunming mice [3]; [9]): 3.92 ± 1.12 min
4 | COc1cc(OC)c2c(=O)cc(-c3ccccc3O)oc2c1OC [Example 3, 2′-hydroxyl-5,7,8-trimethoxyl-flavone] | 3 | 30% | 4 | 40* % | 6 | 60** % | 283.4 ± 45.8 /10 min | 264.7 ± 46.1 /10 min | 305.8 ± 80.9 /10 min | 236.2 ± 41.5 /10 min | 246.3 ± 49.1 /10 min | 298.8 ± 71.0 /10 min | 180.5 ± 35.3 /10 min | 174.7 ± 40.5 /10 min | 286.9 ± 90.4 /10 min | 39.65 ± 18.32 | 4.41 ± 1.43 | 56.76 ± 24.86 | 3.90 ± 1.93 | 59.76 ± 25.75 | time to sleep (Kunming mice [3]; [9]): 3.86 ± 1.22 min
